Assays:
[1] = target: Vigna aconitifolia delta1-pyrroline-5-carboxylate synthetase (P5CS) (Vigna aconitifolia, UniProt P32296); test: biochemical
Protocol: (§1) FIG. 3 is a graph illustrating feedback inhibition of delta^1 -pyrroline-5-carboxylate synthetase by proline. Ammonium sulfate-fractionated extracts from E. coli CSH26 (.circle-solid.), E. coli CSH26 harboring PVAB2 (.smallcircle.), the proB74 allele (.orgate.), and the wild-type proB allele (.quadrature.) were assayed for gamma-GK activity by the method of Hayzer and Leisinger, J. Gen. Microbiol., 118, 1980, pp. 287-293.
(§2) P5CS has GSA dehydrogenase and gamma-GK activities, and the gamma-GK activity is feedback inhibited by proline. To confirm that the presently claimed sequence, PVAB2 of FIGS. 1A, 1B, 1C and 1D, encoded P5CS activity, ammonium sulfate-fractionated extracts of E. coli CSH26 and CSH26 harboring PVAB2 were assayed for GSA dehydrogenase-dependent gamma-GK enzyme activity. […] Because proline production is regulated by end-product inhibition of gamma-GK in bacteria, the plant enzyme P5CS was similarly subjected to feed-back control testing. […] The mutation responsible for the resistance to end-product inhibition of the gamma-GK in the proB 74 allele involves a substitution of an A for a G nucleotide, resulting in a change from aspartic acid to asparagine residue at position 107.
(§3) E. coli CSH26 cells and CSH26 harboring different plasmids were grown aerobically at 37° C. for about 16 hours. The cells were harvested by centrifugation at 4,000× g for 10 minutes, and the cell paste resulting was suspended in 4 ml of buffer A (50 mM Tris-Hcl, 1 mM dithiothreitol) at […] Following sonication, (Benson Sonifier, Type 450) at 50 watts, the slurry was centrifuged at 4,000× g for 10 minutes and the supernatant fractionated by ammonium sulfate precipitation. For E. coli CSH26 containing PVAB2, the fraction precipitating between 0 and 30% saturation of ammonium sulfate was used for enzyme assay.

[2] = system: wild-type E. coli gamma-GK; test: biochemical; conditions: more sensitive than Vigna enzyme
Protocol: as §1, §2, §3

[3] = target: T1, wild-type E. coli gamma-GK (Escherichia coli, UniProt P0A7B5); test: biochemical
T1 construct: made in house; host or cells: E. coli CSH26 harboring the wild-type proB allele (plasmid pDU1 from A. Dandekar); ammonium sulfate fraction 40-60%
T1 sequence (P0A7B5 whole entry): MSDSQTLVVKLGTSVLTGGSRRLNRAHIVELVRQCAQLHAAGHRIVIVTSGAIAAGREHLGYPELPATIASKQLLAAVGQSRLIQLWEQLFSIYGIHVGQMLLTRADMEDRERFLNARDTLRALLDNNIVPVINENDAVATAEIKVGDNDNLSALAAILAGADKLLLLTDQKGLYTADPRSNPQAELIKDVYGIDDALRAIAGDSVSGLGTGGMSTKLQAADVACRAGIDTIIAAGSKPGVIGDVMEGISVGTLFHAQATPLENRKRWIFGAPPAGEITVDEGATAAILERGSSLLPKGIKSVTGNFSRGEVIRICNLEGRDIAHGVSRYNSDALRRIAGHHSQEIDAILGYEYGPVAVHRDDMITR
Protocol: as §1, §2, §3

[4] = target: mutant E. coli gamma-GK encoded by the proB74 allele (Escherichia coli, UniProt P0A7B5, D107N); conditions: proB74 mutant form of the bacterial enzyme
mutant E. coli gamma-GK encoded by the proB74 allele, sequence (P0A7B5 whole entry D107N): as the sequence (P0A7B5 whole entry) above, with D107N counted along it
Protocol: as §1, §2
E. coli CSH26 cells and CSH26 harboring different plasmids were grown aerobically at 37° C. for about 16 hours. […]

Vigna aconitifolia delta1-pyrroline-5-carboxylate synthetase (P5CS), sequence (P32296 whole entry): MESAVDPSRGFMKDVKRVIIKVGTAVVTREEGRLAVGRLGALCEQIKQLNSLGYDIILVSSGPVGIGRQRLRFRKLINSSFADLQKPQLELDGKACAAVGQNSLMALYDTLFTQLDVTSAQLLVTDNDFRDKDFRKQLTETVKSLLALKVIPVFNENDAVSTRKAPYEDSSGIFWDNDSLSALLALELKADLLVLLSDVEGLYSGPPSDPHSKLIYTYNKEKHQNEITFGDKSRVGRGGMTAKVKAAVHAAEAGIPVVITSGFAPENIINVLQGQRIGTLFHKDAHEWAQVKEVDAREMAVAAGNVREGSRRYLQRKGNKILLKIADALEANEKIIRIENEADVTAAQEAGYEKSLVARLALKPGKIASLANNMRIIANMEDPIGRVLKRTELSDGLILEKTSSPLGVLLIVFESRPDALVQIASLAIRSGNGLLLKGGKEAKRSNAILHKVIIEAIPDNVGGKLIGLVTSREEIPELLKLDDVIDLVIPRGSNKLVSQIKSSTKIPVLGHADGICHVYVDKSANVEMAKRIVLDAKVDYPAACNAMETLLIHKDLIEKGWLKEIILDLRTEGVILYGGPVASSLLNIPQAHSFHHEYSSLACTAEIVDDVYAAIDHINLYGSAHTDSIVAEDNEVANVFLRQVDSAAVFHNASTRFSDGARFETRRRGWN

With `O=C(O)[C@@H]1CCCN1` [proline] the IC50 [1] was 6 mM, the “sensitivity to proline of wild-type E. coli gamma-GK relative to the Vigna enzyme” value [2] was 30 times and the IC50 [3] was 0.2 mM. The “sensitivity to end product (proline) inhibition, fold less sensitive” value [4] was “approximately 200 fold”.
